{"source": "patent US10472349B2", "about": "“Salt of pyridinyl amino pyrimidine derivative, preparation method therefor, and application thereof” (SHANGHAI ALLIST PHARMACEUTICALS, INC., priority 2016, dated 2019)", "key": {"[1]": {"experiment": "Drug absorption experiment in SD rats, intragastric administration", "format": "in vivo, SD rats (Sprague Dawley rats)", "conditions": "for half-life: read-out: T1/2 (elimination half-life) (converted)", "method": "The determination method for the absolute bioavailability of the intragastric administration of the mesylate salts of the compound of formula (I) is as follows: • For intravenous administration: Healthy SD rats are randomly grouped. The tested compound is administered in a certain dosage D through the intravenous administration. The blood samples are collected through the retrobulbar venous plexus before the administration and 5 min, 15 min, 0.5 h, 1.0 h, 2.0 h, 4.0 h, 8.0 h, 12 h and 24 h after the administration, and separated to give plasmas. […] The tested substance is administered in a certain dosage D through the intragastric administration.\nAfter dosage calibration, the absolute bioavailability F is calculated by the area under the drug concentration-time curve (AUC0-t). The calculation equation is as follows: F=(AUCintragastric×Dintravenous)/(AUCintravenous[…])×100%.\nFor intragastric administration: 16 healthy (half male and half female) SD rats with 200-280 g body weight, provided by Shanghai Sippr-BK laboratory animal Co. Ltd., were assigned randomly to 4 groups.\nAfter dosage calibration, the absolute bioavailability F was obtained by calculation of AUC0-t. The calculation equation was as follows: F=(AUCintragastric×Dintravenous)/(AUCintravenous×Dintragastric)×100%. The obtained absolute bioavailability F data are shown in the above table 2."}, "[2]": {"experiment": "Drug absorption experiment in SD rats, intravenous administration", "format": "in vivo, SD rats (Sprague Dawley rats)", "conditions": "plasma", "method": "The determination method for the absolute bioavailability of the intragastric administration of the mesylate salts of the compound of formula (I) is as follows: • For intravenous administration: Healthy SD rats are randomly grouped. The tested compound is administered in a certain dosage D through the intravenous administration. The blood samples are collected through the retrobulbar venous plexus before the administration and 5 min, 15 min, 0.5 h, 1.0 h, 2.0 h, 4.0 h, 8.0 h, 12 h and 24 h after the administration, and separated to give plasmas. The concentration of the drug in plasma is determined with the liquid chromatography-tandem mass spectrometry method to give a drug concentration-time curve. • For intragastric administration: Healthy SD rats are randomly grouped. The tested substance is administered in a certain dosage D through the intragastric administration. The intravenous blood samples are collected through the rat's retrobulbar venous plexus before the administration and 0.5, 1.0, 2.0, 4.0, 6.0, 8.0, 10, 12 and 24 h after the administration, and separated to give plasmas. The concentration of the drug in plasma is determined with the liquid chromatography-tandem mass spectrometry method to give a drug concentration-time curve.\nFor intravenous administration: 16 healthy (half male and half female) SD rats with 200-280 g body weight, provided by Shanghai Sippr-BK laboratory animal Co. Ltd., were assigned randomly to 4 groups. […] 0.2 ml of the intravenous blood samples were collected through the rat's retrobulbar venous plexus before the administration and 5 min, 15 min, 0.5 h, 1.0 h, 2.0 h, 4.0 h, 8.0 h, 12 h and 24 h after the administration, and separated to give plasmas. The concentration of the drug in plasma was determined with the liquid chromatography-tandem mass spectrometry method to give a drug concentration-time curve.\nT1/2: elimination half-life; Cmax: maximum drug concentration in plasma; AUC0-t: area under drug concentration-time curve."}, "[3]": {"system": "subcutaneously transplanted tumors of human lung cancer H1975", "experiment": "Inhibition effect on the growth of subcutaneously transplanted tumors of human lung cancer H1975-bearing nude mice", "format": "in vivo", "conditions": "25 mg/kg intragastric, once per day for 21 days", "text": "The pharmacodynamics of the mesylate salts of the compound of formula (I) in terms of inhibiting the growth of transplanted tumors in animal may be assayed by conventional methods. One preferable evaluation method aims to the inhibitory effect on the growth of subcutaneously transplanted tumors of human lung cancer H1975-bearing nude mice. The experimental method may be as follows: human lung cancer H1975 cell strain (5×10^6/each mouse) is inoculated to nude mice subcutaneously at the right side of the back thereof. After the tumors grow to 100-150 mm^3 on average, the animals are divided into groups randomly according to the tumor size and the animal weight. […] During the entire experimental process, the animal weight and the tumor size are measured twice per week, so as to observe whether or not the toxic reaction occurs.\nThe tumor volume is calculated as follows: Tumor volume (mm^3)=0.5×Tumor major diameter×Tumor minor diameter×Tumor minor diameter. […]\nCell cultivation: H1975 was placed in a RPMI-1640 medium containing 10% FBS, and cultivated in a temperature-constant incubator containing 5% CO2 at 37° C. The cells in exponential growth phase were collected and counted for inoculation. […]\nThe tumor volume was calculated as follows: Tumor volume (mm^3)=0.5×Tumor major diameter×Tumor minor diameter×Tumor minor diameter."}, "[4]": {"conditions": "both sexes, Sprague-Dawley, rat, plasma, po, intragastric, dosage 10 (Example 1), 10 (Example 2), 6 (Comparative Example 1), 10 (Comparative Example 2) mg/kg, plasma, read-out: AUC0-t"}, "[5]": {"conditions": "both sexes, Sprague-Dawley, rat, plasma, po, intragastric, dosage 10 (Example 1), 10 (Example 2), 6 (Comparative Example 1), 10 (Comparative Example 2) mg/kg, plasma, read-out: Cmax"}, "[6]": {"conditions": "both sexes, Sprague-Dawley, rat, plasma, po, intragastric, dosage 10 (Example 1), 10 (Example 2), 6 (Comparative Example 1), 10 (Comparative Example 2) mg/kg, plasma"}, "[7]": {"conditions": "SD rats, intravenous, dosage 2.5 (Example 1), 4.0 (Example 2), 3.0 (Comparative Example 1), 4.0 (Comparative Example 2) mg/kg"}, "[8]": {"conditions": "intragastric, dosage 10 (Example 1), 10 (Example 2), 6 (Comparative Example 1), 10 (Comparative Example 2) mg/kg, plasma"}}, "note": "Counter-ions that a name gives are not always drawn."}
{"smiles": "C=CC(=O)Nc1cc(Nc2nccc(-c3cn(C)c4ccccc34)n2)c(OC(C)C)nc1N(C)CCN(C)C", "note": "[Comparative Example 1, reference compound]", "values": [{"measurement": "AUC(0-t)", "setting": "[1]; [4]", "value": 77.7, "unit": "ng·h/mL"}, {"measurement": "Cmax", "setting": "[1]; [5]", "value": 12.6, "unit": "ng/mL"}, {"measurement": "half-life", "setting": "[1]; [6]", "value": 8.6, "unit": "h"}]}
{"smiles": "C=CC(=O)Nc1cc(Nc2ncc(Cl)c(-c3cn(C)c4ccccc34)n2)c(OC(C)C)nc1N(C)CCN(C)C", "note": "[Comparative Example 2, reference compound]", "values": [{"measurement": "AUC(0-t)", "setting": "[1]; [4]", "value": 172, "unit": "ng·h/mL"}, {"measurement": "Cmax", "setting": "[1]; [5]", "value": 28.3, "unit": "ng/mL"}, {"measurement": "half-life", "setting": "[1]; [6]", "value": 5.76, "unit": "h"}]}
{"smiles": "C=CC(=O)Nc1cc(Nc2nccc(-c3cn(C)c4ccccc34)n2)c(OCC(F)(F)F)nc1N(C)CCN(C)C", "note": "[Example 1, N-{2-{[2-(dimethylamino)ethyl](methyl)amino}-6-(2,2,2-trifluoroethoxy)-5-{[4-(1-methyl-1H-indol-3-yl)pyrimidin-2-yl]amino}pyridin-3-yl}acrylamide]", "values": [{"measurement": "AUC(0-t)", "setting": "[2]; [7]", "value": 307.3, "unit": "ng·h/mL"}, {"measurement": "Cmax", "setting": "[2]; [7]", "value": 81.3, "unit": "ng/mL"}, {"measurement": "T1/2 (elimination half-life)", "setting": "[2]; [7]", "value": 3.96, "unit": "h"}, {"measurement": "AUC(0-t)", "setting": "[1]; [4]", "value": 232, "unit": "ng·h/mL"}, {"measurement": "F (absolute bioavailability)", "setting": "[1]; intragastric vs intravenous, calculated from AUC0-t after dosage calibration", "value": 18.85, "unit": "%"}, {"measurement": "Cmax", "setting": "[1]; [8]", "value": 17.6, "unit": "ng/mL"}]}
{"smiles": "C=CC(=O)Nc1cc(Nc2nccc(-c3cn(C)c4ccccc34)n2)c(OCC(F)(F)F)nc1N(C)CCN(C)C", "note": "[Example 2, mesylate salt of N-{2-{[2-(dimethylamino)ethyl](methyl)amino}-6-(2,2,2-trifluoroethoxy)-5-{[4-(1-methyl-1H-indol-3-yl)pyrimidin-2-yl]amino}pyridin-3-yl}acrylamide]", "values": [{"measurement": "AUC(0-t)", "setting": "[2]; both sexes, Sprague-Dawley, rat, iv, read-out: AUC0-t", "value": 406, "unit": "ng·h/mL"}, {"measurement": "Cmax", "setting": "[2]; both sexes, Sprague-Dawley, rat, iv, read-out: Cmax", "value": 430, "unit": "ng/mL"}, {"measurement": "half-life", "setting": "[2]; both sexes, Sprague-Dawley, rat, iv, read-out: T1/2 (elimination half-life) (converted)", "value": 3.13, "unit": "h"}, {"measurement": "bioavailability", "setting": "[1]; both sexes, Sprague-Dawley, rat, plasma, oral, intragastric vs intravenous, calculated from AUC0-t after dosage calibration, read-out: F (absolute bioavailability)", "value": 28.3, "unit": "%"}, {"measurement": "AUC(0-t)", "setting": "[1]; [8]", "value": 287, "unit": "ng·h/mL"}, {"measurement": "Cmax", "setting": "[1]; [8]", "value": 44.54, "unit": "ng/mL"}, {"measurement": "T1/2 (elimination half-life)", "setting": "[1]; [8]", "value": 8.33, "unit": "h"}, {"measurement": "Inhibition effect on the growth of subcutaneously transplanted tumors", "setting": "[3]", "value": "good inhibition effect"}, {"measurement": "Safety (body weight, toxic reaction)", "setting": "[3]", "value": "good safety"}]}
